Measurements from patent US10836792B2, “Retro-inverso peptide inhibitors of cell migration, extracellular matrix and endothelial invasion by tumor cells” (ISTITUTO NAZIONALE TUMORI IRCCS “FONDAZIONE G. PASCALE”, priority 2016, dated 2020).
Non-standard residues stand in square brackets, D forms with d. Residues, ends and D or L forms follow the SMILES beside them. Aib = CC(C)(N)C(=O)O

Biological target: T1, FPR1 (Homo sapiens, UniProt P21462)
T1 construct: expressed in transfected cells; host or cells: rat basophilic leukaemia RBL-2H3/ETFR cells
T1 sequence (P21462 1-350): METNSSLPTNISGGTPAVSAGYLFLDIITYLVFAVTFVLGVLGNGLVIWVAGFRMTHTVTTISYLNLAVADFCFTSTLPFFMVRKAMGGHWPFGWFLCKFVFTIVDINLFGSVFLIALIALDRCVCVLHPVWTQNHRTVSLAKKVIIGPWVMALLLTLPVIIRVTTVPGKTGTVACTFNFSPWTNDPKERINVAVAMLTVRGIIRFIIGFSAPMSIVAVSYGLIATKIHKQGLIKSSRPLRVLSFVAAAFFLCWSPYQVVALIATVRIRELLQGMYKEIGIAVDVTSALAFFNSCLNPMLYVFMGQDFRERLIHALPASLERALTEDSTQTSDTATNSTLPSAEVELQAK
Assay: Competition with FITC-fMLF binding to RBL-2H3/ETFR cells stably expressing FPR1
Details: 100 nM pre-incubation 60 min at 4° C., then 10 nM FITC-fMLF
Protocol: Cell-associated fluorescence was measured using a fluorescence plate reader. The results are depicted in FIG. 3. […] To evaluate the effect of RI-3 on agonist-dependent FPR1 internalization, binding experiments were performed at 37° C. and cells were visualized using a Zeiss 510 Meta LSM microscope. Original magnifications: 630×. Scale bar: 10 μm.

For CC(=O)N[C@H](Cc1ccc(O)cc1)C(=O)N[C@H](CCCNC(=N)N)C(=O)NC(C)(C)C(=O)N[C@H](CCCNC(=N)N)C(N)=O [RI-3, Ac-(D)-Tyr-(D)-Arg-Aib-(D)-Arg-NH2] (Ac-[dY][dR][Aib][dR]-NH2), the “inhibition of binding of fluorescent agonist (FITC-fMLF) to RBL-2H3/ETFR cells” value was “to a similar extent as compared to fMLF”.
